Source: ChEMBL document CHEMBL2074341, “Biliary excretion of flavopiridol and its glucuronides in the isolated perfused rat liver: role of multidrug resistance protein 2 (Mrp2)” (Life Sci, 2003)

Target: ATP-binding cassette sub-family C member 2 (Rattus norvegicus, UniProt Q63120)
Assay: TP_TRANSPORTER: transport activity, in vitro, Wistar vs TR-
Format: functional

Chain of ATP-binding cassette sub-family C member 2 (Q63120 whole entry): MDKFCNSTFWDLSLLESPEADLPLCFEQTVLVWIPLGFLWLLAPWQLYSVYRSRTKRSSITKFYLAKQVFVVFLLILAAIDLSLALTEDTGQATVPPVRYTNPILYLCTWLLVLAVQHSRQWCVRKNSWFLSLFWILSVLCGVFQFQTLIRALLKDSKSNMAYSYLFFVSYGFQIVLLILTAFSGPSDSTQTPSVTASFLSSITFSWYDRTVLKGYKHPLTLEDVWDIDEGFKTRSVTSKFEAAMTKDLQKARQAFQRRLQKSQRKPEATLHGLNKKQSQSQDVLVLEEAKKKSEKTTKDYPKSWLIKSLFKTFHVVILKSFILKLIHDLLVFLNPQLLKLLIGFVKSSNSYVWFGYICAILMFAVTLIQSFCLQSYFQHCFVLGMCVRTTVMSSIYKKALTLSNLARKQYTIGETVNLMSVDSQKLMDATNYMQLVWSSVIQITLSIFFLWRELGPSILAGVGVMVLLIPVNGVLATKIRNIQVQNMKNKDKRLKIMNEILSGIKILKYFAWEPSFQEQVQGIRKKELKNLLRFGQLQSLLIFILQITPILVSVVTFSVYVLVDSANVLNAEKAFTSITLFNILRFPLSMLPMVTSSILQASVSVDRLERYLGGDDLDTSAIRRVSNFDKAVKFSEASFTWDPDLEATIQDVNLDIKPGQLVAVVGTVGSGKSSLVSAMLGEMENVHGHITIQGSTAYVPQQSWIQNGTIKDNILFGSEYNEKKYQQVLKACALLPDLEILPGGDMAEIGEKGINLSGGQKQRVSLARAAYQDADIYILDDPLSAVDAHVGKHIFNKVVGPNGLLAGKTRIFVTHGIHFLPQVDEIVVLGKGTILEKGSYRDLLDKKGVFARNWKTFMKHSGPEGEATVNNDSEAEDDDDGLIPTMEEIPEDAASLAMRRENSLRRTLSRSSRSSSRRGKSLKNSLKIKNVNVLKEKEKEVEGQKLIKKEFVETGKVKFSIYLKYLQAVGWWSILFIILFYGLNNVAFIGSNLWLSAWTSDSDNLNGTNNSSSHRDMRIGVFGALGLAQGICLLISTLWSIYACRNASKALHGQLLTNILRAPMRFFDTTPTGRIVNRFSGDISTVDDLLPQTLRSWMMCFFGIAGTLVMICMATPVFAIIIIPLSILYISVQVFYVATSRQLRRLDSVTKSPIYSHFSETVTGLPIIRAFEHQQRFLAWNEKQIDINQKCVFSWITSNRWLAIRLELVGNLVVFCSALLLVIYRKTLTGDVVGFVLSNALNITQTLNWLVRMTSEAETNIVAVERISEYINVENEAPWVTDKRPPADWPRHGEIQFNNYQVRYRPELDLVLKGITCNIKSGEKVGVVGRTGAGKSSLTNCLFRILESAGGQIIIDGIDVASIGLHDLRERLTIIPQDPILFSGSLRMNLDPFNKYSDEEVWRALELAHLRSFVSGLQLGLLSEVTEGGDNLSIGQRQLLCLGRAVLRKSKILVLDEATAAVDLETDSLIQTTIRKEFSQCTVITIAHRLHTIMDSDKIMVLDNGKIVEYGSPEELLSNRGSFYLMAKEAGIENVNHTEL

| Activity | Compound |
| --- | --- |
| substrate [] | CN1CC[C@H](c2c(O[C@@H]3O[C@H](C(=O)O)[C@@H](O)[C@H](O)[C@H]3O)cc(O)c3c(=O)cc(-c4ccccc4Cl)oc23)[C@H](O)C1 |
| substrate [] | CN1CC[C@H](c2c(O)cc(O[C@@H]3O[C@H](C(=O)O)[C@@H](O)[C@H](O)[C@H]3O)c3c(=O)cc(-c4ccccc4Cl)oc23)[C@H](O)C1 |
